{"source": "the supplement of paper PMC10307832", "assay_in_all_cases": "relative viability (nuclei count vs DMSO), 5 days (fraction); higher = more cells survive", "key": {"[1]": {"compound": "CN1C=C(C2=CC=CC=C21)/C=C\\3/C4=C(C=CC=N4)NC3=O + O=C(CCCCCCC(=O)Nc1ccccc1)NO [Vorinostat] (partner 1 µM)", "summary_of_the_method": "(§1)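 A single step with final 0.05% Triton X-100, 1% formaldehyde and 1 ug/ml Hoechst fixed the cells and stained nuclei 5 days after treatment. Lung cancer cell lines in 1536-well plates had been treated by pin tool the day after seeding with one drug alone or a fixed anchor-drug dose plus five library-drug doses (not always all listed) in √10 steps, and nuclei were counted on 4× images. Relative viability is the ratio of nuclei in treated wells to nuclei in vehicle wells, taken as the median of duplicate plates.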"}, "[2]": {"compound": "CN1C=C(C2=CC=CC=C21)/C=C\\3/C4=C(C=CC=N4)NC3=O + COc1cc2c(Oc3ccc(NC(=O)C4(C(=O)Nc5ccc(F)cc5)CC4)cc3F)ccnc2cc1OCCCN1CCOCC1 [Foretinib] (partner 0.25 µM)", "summary_of_the_method": "as §1"}, "Trametinib + Alpelisib": {"compound": "CC(=O)Nc1cccc(-n2c(=O)n(C3CC3)c(=O)c3c(Nc4ccc(I)cc4F)n(C)c(=O)c(C)c32)c1 [Trametinib] + Cc1nc(NC(=O)N2CCC[C@H]2C(N)=O)sc1-c1ccnc(C(C)(C)C(F)(F)F)c1 [Alpelisib] (partner 2 µM)", "summary_of_the_method": "as §1"}, "Trametinib + Navitoclax": {"compound": "CC(=O)Nc1cccc(-n2c(=O)n(C3CC3)c(=O)c3c(Nc4ccc(I)cc4F)n(C)c(=O)c(C)c32)c1 [Trametinib] + CC1(C)CCC(c2ccc(Cl)cc2)=C(CN2CCN(c3ccc(C(=O)NS(=O)(=O)c4ccc(N[C@H](CCN5CCOCC5)CSc5ccccc5)c(S(=O)(=O)C(F)(F)F)c4)cc3)CC2)C1 [Navitoclax] (partner 0.5 µM)", "summary_of_the_method": "as §1"}}}
{"cell line": "UMC-11", "values": [{"measurement": "relative viability", "setting": "[1]; first compound 0.02 µM", "result": 0.323}, {"measurement": "relative viability", "setting": "[1]; first compound 0.06325 µM", "result": 0.301}, {"measurement": "relative viability", "setting": "[1]; first compound 0.2 µM", "result": 0.322}, {"measurement": "relative viability", "setting": "[1]; first compound 0.6325 µM", "result": 0.391}, {"measurement": "relative viability", "setting": "[1]; first compound 2 µM", "result": 0.36}, {"measurement": "relative viability", "setting": "[2]; first compound 0.02 µM", "result": 0.835}, {"measurement": "relative viability", "setting": "[2]; first compound 0.06325 µM", "result": 0.979}, {"measurement": "relative viability", "setting": "[2]; first compound 0.2 µM", "result": 1.06}, {"measurement": "relative viability", "setting": "[2]; first compound 0.6325 µM", "result": 1.14}, {"measurement": "relative viability", "setting": "[2]; first compound 2 µM", "result": 1.29}, {"measurement": "relative viability", "setting": "Trametinib + Alpelisib; first compound 0.0025 µM", "result": 0.904}, {"measurement": "relative viability", "setting": "Trametinib + Alpelisib; first compound 0.007906 µM", "result": 0.981}, {"measurement": "relative viability", "setting": "Trametinib + Alpelisib; first compound 0.025 µM", "result": 0.956}, {"measurement": "relative viability", "setting": "Trametinib + Alpelisib; first compound 0.07906 µM", "result": 0.876}, {"measurement": "relative viability", "setting": "Trametinib + Alpelisib; first compound 0.25 µM", "result": 0.945}, {"measurement": "relative viability", "setting": "Trametinib + Navitoclax; first compound 0.0025 µM", "result": 0.305}, {"measurement": "relative viability", "setting": "Trametinib + Navitoclax; first compound 0.007906 µM", "result": 0.32}, {"measurement": "relative viability", "setting": "Trametinib + Navitoclax; first compound 0.025 µM", "result": 0.288}, {"measurement": "relative viability", "setting": "Trametinib + Navitoclax; first compound 0.07906 µM", "result": 0.266}, {"measurement": "relative viability", "setting": "Trametinib + Navitoclax; first compound 0.25 µM", "result": 0.263}]}
